This note sets out measurements from ChEMBL document CHEMBL1909046, “DrugMatrix in vitro pharmacology data”.

The structures appear in SMILES notation.

The target in experiment [1] is Epidermal growth factor receptor (Homo sapiens, UniProt P00533). The experiment in a line: DRUGMATRIX: Protein Tyrosine Kinase, EGF Receptor enzyme inhibition (substrate: Poly(Glu:Tyr)). The class given is cell-based, Insect cells. As to conditions: insect cells; Not Active = under 50% inhibition at 10 µM.
Experiment [2] has as its target Tyrosine-protein kinase Lck (Homo sapiens, UniProt P06239). In words: DRUGMATRIX: Protein Tyrosine Kinase, LCK enzyme inhibition (substrate: Poly(Glu:Tyr)). The class given is cell-based, Insect cells. As to conditions: insect cells; Not Active = under 50% inhibition at 10 µM.
The target in experiment [3] is Beta-3 adrenergic receptor (Homo sapiens, UniProt P13945). The experiment in a line: DRUGMATRIX: Adrenergic beta3 radioligand binding (ligand: [125I] Cyanopindolol). The class given is cell membranes, HEK293, Membrane. As to conditions: hek293; Not Active = under 50% inhibition at 10 µM.
Experiment [4] in a line: DRUGMATRIX: Potassium Channel [KATP] radioligand binding (ligand: [3H] Glyburide). The class given is cell membranes, Membrane. As to conditions: hit-t15; Not Active = under 50% inhibition at 10 µM.
A further experiment has as its target T1, Caspase-1 (Homo sapiens, UniProt P29466).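 Further: Caspase-1 enzyme inhibition assay with a peptide substrate; in other assays of this panel Not Active means under 50% inhibition at 10 µM.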
T1 sequence (P29466 whole entry): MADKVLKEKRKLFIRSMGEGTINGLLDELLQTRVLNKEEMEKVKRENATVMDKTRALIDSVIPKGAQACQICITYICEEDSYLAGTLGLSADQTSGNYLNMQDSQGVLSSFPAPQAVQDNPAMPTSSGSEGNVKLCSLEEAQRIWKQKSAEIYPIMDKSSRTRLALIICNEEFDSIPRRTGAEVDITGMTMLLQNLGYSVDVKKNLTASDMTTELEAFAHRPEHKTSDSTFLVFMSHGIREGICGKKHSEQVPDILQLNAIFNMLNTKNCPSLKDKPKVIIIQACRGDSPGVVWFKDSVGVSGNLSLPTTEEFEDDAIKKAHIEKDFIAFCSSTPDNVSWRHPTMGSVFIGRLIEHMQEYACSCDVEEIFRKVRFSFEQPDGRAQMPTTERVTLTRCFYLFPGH
Also noted: species or system Escherichia coli.

The target in experiment [5] is T2, 3-hydroxy-3-methylglutaryl-coenzyme A reductase (Homo sapiens, UniProt P04035).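 Further: enzyme inhibition assay of HMG-CoA reductase using radiolabeled [14C]HMG-CoA as substrate; in other assays of this panel Not Active means under 50% inhibition at 10 µM.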
T2 sequence (P04035 whole entry): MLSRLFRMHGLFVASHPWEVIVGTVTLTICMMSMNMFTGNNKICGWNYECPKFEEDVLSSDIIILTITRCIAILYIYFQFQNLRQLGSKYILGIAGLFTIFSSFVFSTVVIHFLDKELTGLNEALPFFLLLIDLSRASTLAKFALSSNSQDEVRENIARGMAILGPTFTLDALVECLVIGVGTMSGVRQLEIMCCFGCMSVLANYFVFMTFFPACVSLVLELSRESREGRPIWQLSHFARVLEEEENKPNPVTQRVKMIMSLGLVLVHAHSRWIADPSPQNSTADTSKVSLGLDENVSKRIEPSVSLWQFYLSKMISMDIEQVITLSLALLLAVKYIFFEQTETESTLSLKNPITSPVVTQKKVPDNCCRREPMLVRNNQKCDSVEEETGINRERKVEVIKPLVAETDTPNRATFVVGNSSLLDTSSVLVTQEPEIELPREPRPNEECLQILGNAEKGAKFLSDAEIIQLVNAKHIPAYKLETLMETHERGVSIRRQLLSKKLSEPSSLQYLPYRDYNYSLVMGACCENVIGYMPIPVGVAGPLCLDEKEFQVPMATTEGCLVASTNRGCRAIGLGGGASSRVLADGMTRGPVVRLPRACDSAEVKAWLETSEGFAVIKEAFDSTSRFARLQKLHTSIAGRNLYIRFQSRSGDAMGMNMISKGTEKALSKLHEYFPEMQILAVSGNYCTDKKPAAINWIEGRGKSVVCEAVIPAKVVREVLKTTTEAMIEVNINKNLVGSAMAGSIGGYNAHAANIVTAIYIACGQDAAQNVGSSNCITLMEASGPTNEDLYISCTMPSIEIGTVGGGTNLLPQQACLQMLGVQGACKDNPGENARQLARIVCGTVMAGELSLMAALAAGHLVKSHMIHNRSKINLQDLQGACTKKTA
Set-up: species or system Escherichia coli.

A short description of experiment [6]: DRUGMATRIX: Glutamate, AMPA radioligand binding (ligand: [3H] AMPA). The experiment is classed as cell membranes, Rattus norvegicus, Wistar, Cerebral cortex, Membrane. To be noted: Not Active = under 50% inhibition at 10 µM.

Tyrosine-protein kinase Lck, sequence (P06239 whole entry): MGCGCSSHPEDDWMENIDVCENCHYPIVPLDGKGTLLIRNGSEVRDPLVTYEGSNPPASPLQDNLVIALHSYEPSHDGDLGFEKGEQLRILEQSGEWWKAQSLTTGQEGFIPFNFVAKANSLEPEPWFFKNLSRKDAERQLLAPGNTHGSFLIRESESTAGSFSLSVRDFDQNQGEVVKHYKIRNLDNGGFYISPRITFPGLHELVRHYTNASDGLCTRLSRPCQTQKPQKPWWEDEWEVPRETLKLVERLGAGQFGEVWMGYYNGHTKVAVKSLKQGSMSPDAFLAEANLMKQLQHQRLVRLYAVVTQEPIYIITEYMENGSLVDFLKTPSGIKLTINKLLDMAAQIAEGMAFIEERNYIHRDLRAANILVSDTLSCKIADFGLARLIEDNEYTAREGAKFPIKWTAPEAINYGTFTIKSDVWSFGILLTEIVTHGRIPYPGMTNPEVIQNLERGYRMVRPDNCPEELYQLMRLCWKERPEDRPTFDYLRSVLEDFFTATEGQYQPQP
Beta-3 adrenergic receptor, sequence (P13945 whole entry): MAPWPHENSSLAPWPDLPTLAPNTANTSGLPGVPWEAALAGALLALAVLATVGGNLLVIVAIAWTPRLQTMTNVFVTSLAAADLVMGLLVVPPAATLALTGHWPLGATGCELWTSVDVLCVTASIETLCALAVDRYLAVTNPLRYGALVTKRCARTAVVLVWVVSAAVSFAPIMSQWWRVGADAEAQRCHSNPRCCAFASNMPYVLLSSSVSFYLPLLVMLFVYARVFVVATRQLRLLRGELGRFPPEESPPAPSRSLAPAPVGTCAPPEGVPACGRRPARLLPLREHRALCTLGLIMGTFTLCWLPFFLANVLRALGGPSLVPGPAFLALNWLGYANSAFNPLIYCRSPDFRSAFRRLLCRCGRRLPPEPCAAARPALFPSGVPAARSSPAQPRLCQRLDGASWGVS
Epidermal growth factor receptor, sequence (P00533 whole entry): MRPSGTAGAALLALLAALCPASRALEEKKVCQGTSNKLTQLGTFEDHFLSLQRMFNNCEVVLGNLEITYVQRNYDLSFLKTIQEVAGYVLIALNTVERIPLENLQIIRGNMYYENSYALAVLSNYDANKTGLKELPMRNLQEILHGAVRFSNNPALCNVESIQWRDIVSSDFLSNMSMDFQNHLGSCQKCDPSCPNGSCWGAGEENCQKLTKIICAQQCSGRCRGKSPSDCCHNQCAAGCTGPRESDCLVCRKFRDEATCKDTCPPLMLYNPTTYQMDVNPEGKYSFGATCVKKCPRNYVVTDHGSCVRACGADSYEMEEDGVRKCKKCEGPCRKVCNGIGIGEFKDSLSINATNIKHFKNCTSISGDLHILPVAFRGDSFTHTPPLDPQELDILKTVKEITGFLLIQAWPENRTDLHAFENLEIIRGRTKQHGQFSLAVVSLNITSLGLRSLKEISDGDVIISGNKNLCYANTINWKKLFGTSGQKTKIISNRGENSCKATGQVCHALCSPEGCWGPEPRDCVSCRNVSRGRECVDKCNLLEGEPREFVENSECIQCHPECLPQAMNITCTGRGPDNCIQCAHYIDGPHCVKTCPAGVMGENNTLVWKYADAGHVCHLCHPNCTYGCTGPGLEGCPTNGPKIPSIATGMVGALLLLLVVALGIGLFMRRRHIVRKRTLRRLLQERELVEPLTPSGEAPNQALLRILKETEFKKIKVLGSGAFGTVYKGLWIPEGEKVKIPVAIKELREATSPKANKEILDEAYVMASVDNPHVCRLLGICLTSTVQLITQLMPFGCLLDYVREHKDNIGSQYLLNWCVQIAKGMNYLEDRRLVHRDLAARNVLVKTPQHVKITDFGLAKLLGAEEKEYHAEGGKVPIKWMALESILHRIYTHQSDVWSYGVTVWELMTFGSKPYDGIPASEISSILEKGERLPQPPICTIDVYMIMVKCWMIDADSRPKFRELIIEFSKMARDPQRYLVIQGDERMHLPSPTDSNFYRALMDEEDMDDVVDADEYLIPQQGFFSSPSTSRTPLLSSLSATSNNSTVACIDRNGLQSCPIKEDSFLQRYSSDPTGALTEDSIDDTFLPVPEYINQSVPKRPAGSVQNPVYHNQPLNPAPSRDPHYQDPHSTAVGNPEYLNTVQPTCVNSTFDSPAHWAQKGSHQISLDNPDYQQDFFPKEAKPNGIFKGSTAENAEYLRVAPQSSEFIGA

Consider `C[N+]1(C)[C@@H]2C[C@@H](OC(=O)[C@H](CO)c3ccccc3)C[C@H]1[C@@H]1O[C@@H]12.[Br-]` [METHSCOPOLAMINE BROMIDE], for which the IC50 result (in experiment [1]; in experiment [2]; in experiment [3]; in experiment [4]; at Caspase-1; in experiment [5]) was “Not Active” throughout. The IC50 entry in experiment [6] is “Not Active”. Moreover, the Ki result in experiment [4] and in experiment [6] was “Not Active” throughout.
Consider `Cc1nnc(NS(=O)(=O)c2ccc(N)cc2)s1` [SULFAMETHIZOLE], for which the half-maximal inhibitory concentration (IC50) entry (in experiment [1]; in experiment [2]; in experiment [3]; in experiment [4]; against Caspase-1; in experiment [5]) was “Not Active” throughout. The IC50 entry in experiment [6] is given as “Not Active”. Further, the Ki result in experiment [4] and in experiment [6] was “Not Active” throughout.
`CC(=O)O[C@]1(C(C)=O)CC[C@H]2[C@@H]3C[C@H](C)C4=CC(=O)CC[C@]4(C)[C@H]3CC[C@@]21C` [MEDROXYPROGESTERONE ACETATE]: the half-inhibitory concentration (IC50) entry (in experiment [1]; in experiment [2]; in experiment [3]; in experiment [4]; at Caspase-1; in experiment [5]) was “Not Active” throughout. For the same molecule, the 50% inhibitory concentration (IC50) entry in experiment [6] is recorded as “Not Active”. For the same molecule, the Ki result in experiment [4] and in experiment [6] was “Not Active” each time.
As to `CC1(C)[C@H](C(=O)O)N2C(=O)C[C@H]2S1(=O)=O` [SULBACTAM], the IC50 entry (in experiment [1]; in experiment [2]; in experiment [3]; in experiment [4]; against Caspase-1; in experiment [5]) was “Not Active” each time. For the same molecule, the IC50 entry in experiment [6] was “Not Active”. Moreover, the Ki result in experiment [4] and in experiment [6] was “Not Active” each time.
Regarding `O=C(O)c1cc(/N=N/c2ccc(S(=O)(=O)Nc3ccccn3)cc2)ccc1O` [SULFASALAZINE], the IC50 result was “Not Active” in experiment [1]; “Not Active” in experiment [2]; “Not Active” in experiment [3]; “Not Active” in experiment [4]; 28.8 µM at Caspase-1 (read-out: IC50); “Not Active” in experiment [5]. Moreover, the concentration for half-maximal inhibition (IC50) entry in experiment [6] was “Not Active”. In addition, the Ki entry in experiment [4] and in experiment [6] was “Not Active” in each case.
For `CCN(CC)CCNC(=O)c1cc(Cl)c(N)cc1OC` [METOCLOPRAMIDE], the IC50 entry (in experiment [1]; in experiment [2]; in experiment [3]; in experiment [4]; on Caspase-1; in experiment [5]) was “Not Active” each time. Moreover, the IC50 entry in experiment [6] is listed as “Not Active”. For the same molecule, the Ki result in experiment [4] and in experiment [6] was “Not Active” each time.
Take `Cc1ccnc(NS(=O)(=O)c2ccc(N)cc2)n1` [SULFAMERAZINE]: the half-maximal inhibitory concentration (IC50) result (in experiment [1]; in experiment [2]; in experiment [3]; in experiment [4]; against Caspase-1; in experiment [5]) was “Not Active” throughout. Further, in experiment [6], the IC50 entry was “Not Active”. Besides, the Ki entry in experiment [4] and in experiment [6] was “Not Active” throughout.
As to `Cc1cccc(C)c1NC(=O)C(C)N` (stereo unspecified) [TOCAINIDE], the 50% inhibitory concentration (IC50) result (in experiment [1]; in experiment [2]; in experiment [3]; in experiment [4]; against Caspase-1; in experiment [5]) was “Not Active” in each case. Moreover, the IC50 result in experiment [6] was “Not Active”. The Ki entry in experiment [4] and in experiment [6] was “Not Active” in each case.
For the molecule `CC#C[C@]1(O)CC[C@H]2[C@@H]3CCC4=CC(=O)CCC4=C3[C@@H](c3ccc(N(C)C)cc3)C[C@@]21C` [MIFEPRISTONE], the IC50 entry (in experiment [1]; in experiment [2]; in experiment [3]; in experiment [4]; against Caspase-1; in experiment [5]) was “Not Active” each time. The half-inhibitory concentration (IC50) result in experiment [6] is given as “Not Active”. Also, the Ki entry in experiment [4] and in experiment [6] was “Not Active” in each case.
Consider `C[C@]12CCC(=O)C[C@@H]1CC[C@@H]1[C@@H]2CC[C@]2(C)[C@@H](O)CC[C@@H]12` [STANOLONE], for which the half-maximal inhibitory concentration (IC50) entry (in experiment [1]; in experiment [2]; in experiment [3]; in experiment [4]; on Caspase-1; in experiment [5]) was “Not Active” in each case. Further, the IC50 result in experiment [6] is “Not Active”. Moreover, the Ki entry in experiment [4] and in experiment [6] was “Not Active” in each case.
For the molecule `C1CCN2C[C@@H]3C[C@@H](CN4CCCC[C@@H]34)[C@H]2C1` [SPARTEINE], the 50% inhibitory concentration (IC50) entry (in experiment [1]; in experiment [2]; in experiment [3]; in experiment [4]; against Caspase-1; in experiment [5]) was “Not Active” in each case. Also, in experiment [6], the 50% inhibitory concentration (IC50) result is recorded as “Not Active”. Further, the Ki result in experiment [4] and in experiment [6] was “Not Active” in each case.
For `CO[C@@H]1[C@@H](OC)[C@H](C)[C@@](O)(CC(=O)O)O[C@H]1[C@H](C)[C@H]1O[C@@]2(CC[C@@](C)([C@H]3CC[C@@](C)([C@@H]4O[C@@H]([C@H]5O[C@](C)(O)[C@H](C)C[C@@H]5C)C[C@@H]4O[C@@H]4C[C@H](OC)[C@@H](OC)[C@H](C)O4)O3)O2)C[C@H](O)[C@H]1C.N` [MADURAMICIN], the 50% inhibitory concentration (IC50) result (in experiment [1]; in experiment [2]; in experiment [3]; in experiment [4]; at Caspase-1; in experiment [5]) was “Not Active” each time. In experiment [6], the IC50 entry was “Not Active”. The Ki result in experiment [4] and in experiment [6] was “Not Active” each time.
Regarding `CC(N)C12CC3CC(CC(C3)C1)C2` (stereo unspecified) [RIMANTADINE], the 50% inhibitory concentration (IC50) result (in experiment [1]; in experiment [2]; in experiment [3]; in experiment [4]; against Caspase-1; in experiment [5]) was “Not Active” throughout. Further, the IC50 entry in experiment [6] was “Not Active”. The Ki entry in experiment [4] and in experiment [6] was “Not Active” in each case.
Regarding `CCN(CC)C(=S)SSC(=S)N(CC)CC`, the half-maximal inhibitory concentration (IC50) entry (in experiment [1]; in experiment [2]; in experiment [3]; in experiment [4]; at Caspase-1; in experiment [5]) was “Not Active” in each case. In addition, in experiment [6], the half-inhibitory concentration (IC50) entry was “Not Active”. For the same molecule, the Ki result in experiment [4] and in experiment [6] was “Not Active” in each case.
